#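 Values below derive from 48-hour exposures of cells grown in 96-well plates, with endpoints linearly interpolated between the two concentrations bracketing the appropriate inhibition level. At the GI50, growth is halved.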 Calls of active or inactive are those of the source. Rule as the data show it: active = GI50 up to about 1.1 µM and inactive = higher.
# What was measured:
# Experiment in all cases: growth of human tumour cells (NCI), 48 h
# SK-MEL-28 = system: SK-MEL-28
# UACC-257 = system: UACC-257
# HCC 2998 = system: HCC 2998
# U-251 = system: U-251
# UO-31 = system: UO-31
# SF-539 = system: SF-539
# SF-295 = system: SF-295
# RPMI-8226 = system: RPMI-8226
# KM12 = system: KM12
# UACC-62 = system: UACC-62
# T47D = system: T47D
# OVCAR-8 = system: OVCAR-8
# SNB-75 = system: SNB-75
# NCI-H522 = system: NCI-H522
# PC-3 = system: PC-3
# DU-145 = system: DU-145
# SK-MEL-2 = system: SK-MEL-2
# K562 = system: K562
# COLO 205 = system: COLO 205
# A549 = system: A549
# HCT-15 = system: HCT-15
# CAKI-1 = system: CAKI-1
# ACHN = system: ACHN
# LOX IMVI = system: LOX IMVI
# SK-MEL-5 = system: SK-MEL-5
# SW-620 = system: SW-620
# IGROV-1 = system: IGROV-1
# NCI-H226 = system: NCI-H226
# TK-10 = system: TK-10
# SK-OV-3 = system: SK-OV-3
# 786-0 = system: 786-0
# NCI-H23 = system: NCI-H23
# HOP-62 = system: HOP-62
# MDA-MB-435 = system: MDA-MB-435
# M14 = system: M14
# MDA-MB-231 = system: MDA-MB-231
# EKVX = system: EKVX
# OVCAR-4 = system: OVCAR-4
# RXF 393 = system: RXF 393
# CCRF-CEM = system: CCRF-CEM
# SN12C = system: SN12C
# SR = system: SR
# MCF7 = system: MCF7
# A498 = system: A498
# NCI-H460 = system: NCI-H460
# NCI/ADR-RES = system: NCI/ADR-RES
# SNB-19 = system: SNB-19
# SF-268 = system: SF-268
# Malme-3M = system: Malme-3M
# BT-549 = system: BT-549
# OVCAR-5 = system: OVCAR-5
# HCT-116 = system: HCT-116
# MOLT-4 = system: MOLT-4
# HOP-92 = system: HOP-92
# MDA-N = system: MDA-N
# OVCAR-3 = system: OVCAR-3
# HL-60 = system: HL-60
# Hs-578T = system: Hs-578T
# HT-29 = system: HT-29
smiles,measurement,setting,value
O=C(/C=C1\Nc2ccccc2N\C1=C\C(=O)c1ccc(Cl)cc1)c1ccccc1,GI50,SK-MEL-28,42.4 µM (inactive)
same,GI50,UACC-257,53.8 µM (inactive)
same,GI50,HCC 2998,74.8 µM (inactive)
same,GI50,U-251,23.4 µM (inactive)
same,GI50,UO-31,21.4 µM (inactive)
same,GI50,SF-539,35.1 µM (inactive)
same,GI50,SF-295,40.3 µM (inactive)
same,GI50,RPMI-8226,39.4 µM (inactive)
same,GI50,KM12,64.4 µM (inactive)
same,GI50,UACC-62,> 100 µM (inactive)
same,GI50,T47D,16 µM (inactive)
same,GI50,OVCAR-8,23.9 µM (inactive)
same,GI50,SNB-75,21.3 µM (inactive)
same,GI50,NCI-H522,> 100 µM (inactive)
same,GI50,PC-3,> 100 µM (inactive)
same,GI50,DU-145,> 100 µM (inactive)
same,GI50,SK-MEL-2,> 100 µM (inactive)
same,GI50,K562,37.5 µM (inactive)
same,GI50,COLO 205,> 100 µM (inactive)
same,GI50,A549,53 µM (inactive)
same,GI50,HCT-15,52.7 µM
same,GI50,CAKI-1,27.8 µM (inactive)
same,GI50,ACHN,31.6 µM (inactive)
same,GI50,LOX IMVI,33.3 µM (inactive)
same,GI50,SK-MEL-5,> 100 µM (inactive)
same,GI50,SW-620,> 100 µM (inactive)
same,GI50,IGROV-1,> 100 µM (inactive)
same,GI50,NCI-H226,> 100 µM (inactive)
same,GI50,TK-10,> 100 µM (inactive)
same,GI50,SK-OV-3,70 µM (inactive)
same,GI50,786-0,26 µM (inactive)
same,GI50,NCI-H23,75 µM (inactive)
same,GI50,HOP-62,26.1 µM (inactive)
same,GI50,MDA-MB-435,> 100 µM (inactive)
same,GI50,M14,18.3 µM (inactive)
same,GI50,MDA-MB-231,> 100 µM (inactive)
same,GI50,EKVX,> 100 µM (inactive)
same,GI50,OVCAR-4,31.3 µM (inactive)
same,GI50,RXF 393,70.1 µM (inactive)
same,GI50,CCRF-CEM,10.4 µM (inactive)
same,GI50,SN12C,47.2 µM (inactive)
same,GI50,SR,20.6 µM (inactive)
same,GI50,MCF7,38.7 µM (inactive)
same,GI50,A498,73.6 µM (inactive)
same,GI50,NCI-H460,19.7 µM (inactive)
same,GI50,NCI/ADR-RES,> 100 µM (inactive)
same,GI50,SNB-19,94.4 µM (inactive)
same,GI50,SF-268,> 100 µM (inactive)
same,GI50,Malme-3M,> 100 µM (inactive)
same,GI50,BT-549,34.5 µM (inactive)
same,GI50,OVCAR-5,64 µM (inactive)
same,GI50,HCT-116,38.3 µM (inactive)
same,GI50,MOLT-4,7.87 µM (inactive)
Cc1n[nH]c(=O)n1/N=C/c1ccc(F)cc1,GI50,HOP-92,> 100 µM (inactive)
same,GI50,SK-MEL-28,> 100 µM (inactive)
same,GI50,UACC-257,> 100 µM (inactive)
same,GI50,HCC 2998,> 100 µM (inactive)
same,GI50,UO-31,> 100 µM (inactive)
same,GI50,SF-539,> 100 µM (inactive)
same,GI50,SF-295,> 100 µM (inactive)
same,GI50,RPMI-8226,> 100 µM (inactive)
same,GI50,KM12,> 100 µM (inactive)
same,GI50,UACC-62,> 100 µM (inactive)
same,GI50,T47D,> 100 µM (inactive)
same,GI50,OVCAR-8,> 100 µM (inactive)
same,GI50,SNB-75,65.2 µM (inactive)
same,GI50,NCI-H522,> 100 µM (inactive)
same,GI50,DU-145,> 100 µM (inactive)
same,GI50,K562,> 100 µM (inactive)
same,GI50,COLO 205,> 100 µM (inactive)
same,GI50,A549,> 100 µM (inactive)
same,GI50,MDA-N,> 100 µM (inactive)
same,GI50,HCT-15,> 100 µM
same,GI50,CAKI-1,> 100 µM (inactive)
same,GI50,ACHN,> 100 µM (inactive)
same,GI50,OVCAR-3,> 100 µM (inactive)
same,GI50,SW-620,> 100 µM (inactive)
same,GI50,SK-OV-3,> 100 µM (inactive)
same,GI50,786-0,> 100 µM (inactive)
same,GI50,NCI-H23,> 100 µM (inactive)
same,GI50,HOP-62,> 100 µM (inactive)
same,GI50,MDA-MB-435,> 100 µM (inactive)
same,GI50,M14,> 100 µM (inactive)
same,GI50,EKVX,92.9 µM (inactive)
same,GI50,OVCAR-4,> 100 µM (inactive)
same,GI50,RXF 393,40.6 µM (inactive)
same,GI50,CCRF-CEM,> 100 µM (inactive)
same,GI50,SN12C,> 100 µM (inactive)
same,GI50,SR,> 100 µM (inactive)
same,GI50,A498,90.8 µM (inactive)
same,GI50,NCI-H460,> 100 µM (inactive)
same,GI50,NCI/ADR-RES,> 100 µM (inactive)
same,GI50,SNB-19,> 100 µM (inactive)
same,GI50,SF-268,> 100 µM (inactive)
same,GI50,BT-549,> 100 µM (inactive)
same,GI50,OVCAR-5,> 100 µM (inactive)
same,GI50,HCT-116,> 100 µM (inactive)
same,GI50,MOLT-4,> 100 µM (inactive)
C/C(=C/CNc1ncnc2c1ncn2CCC(=O)O)CO,GI50,HOP-92,> 100 µM (inactive)
same,GI50,SK-MEL-28,> 100 µM (inactive)
same,GI50,UACC-257,> 100 µM (inactive)
same,GI50,HCC 2998,> 100 µM (inactive)
same,GI50,UO-31,> 100 µM (inactive)
same,GI50,SF-539,> 100 µM (inactive)
same,GI50,HL-60,> 100 µM (inactive)
same,GI50,SF-295,> 100 µM (inactive)
same,GI50,RPMI-8226,> 100 µM (inactive)
same,GI50,KM12,> 100 µM (inactive)
same,GI50,UACC-62,> 100 µM (inactive)
same,GI50,T47D,> 100 µM (inactive)
same,GI50,OVCAR-8,> 100 µM (inactive)
same,GI50,SNB-75,> 100 µM (inactive)
same,GI50,NCI-H522,> 100 µM (inactive)
same,GI50,PC-3,> 100 µM (inactive)
same,GI50,DU-145,> 100 µM (inactive)
same,GI50,K562,> 100 µM (inactive)
same,GI50,COLO 205,> 100 µM (inactive)
same,GI50,Hs-578T,> 100 µM (inactive)
same,GI50,A549,> 100 µM (inactive)
same,GI50,MDA-N,> 100 µM (inactive)
same,GI50,CAKI-1,> 100 µM (inactive)
same,GI50,ACHN,> 100 µM (inactive)
same,GI50,OVCAR-3,> 100 µM (inactive)
same,GI50,LOX IMVI,> 100 µM (inactive)
same,GI50,SK-MEL-5,> 100 µM (inactive)
same,GI50,SW-620,> 100 µM (inactive)
same,GI50,IGROV-1,> 100 µM (inactive)
same,GI50,NCI-H226,> 100 µM (inactive)
same,GI50,TK-10,> 100 µM (inactive)
same,GI50,SK-OV-3,> 100 µM (inactive)
same,GI50,786-0,> 100 µM (inactive)
same,GI50,NCI-H23,> 100 µM (inactive)
same,GI50,HOP-62,> 100 µM (inactive)
same,GI50,MDA-MB-435,> 100 µM (inactive)
same,GI50,M14,> 100 µM (inactive)
same,GI50,MDA-MB-231,> 100 µM (inactive)
same,GI50,EKVX,> 100 µM (inactive)
same,GI50,OVCAR-4,> 100 µM (inactive)
same,GI50,RXF 393,> 100 µM (inactive)
same,GI50,CCRF-CEM,> 100 µM (inactive)
same,GI50,SN12C,> 100 µM (inactive)
same,GI50,SR,> 100 µM (inactive)
same,GI50,MCF7,> 100 µM (inactive)
same,GI50,A498,> 100 µM (inactive)
same,GI50,NCI-H460,> 100 µM (inactive)
same,GI50,NCI/ADR-RES,> 100 µM (inactive)
same,GI50,SNB-19,> 100 µM (inactive)
same,GI50,SF-268,> 100 µM (inactive)
same,GI50,Malme-3M,> 100 µM (inactive)
same,GI50,HT-29,> 100 µM (inactive)
same,GI50,OVCAR-5,> 100 µM (inactive)
same,GI50,HCT-116,> 100 µM (inactive)
same,GI50,MOLT-4,> 100 µM (inactive)
